BindingDB's records for doi:10.1016/0014-2999(95)00786-5 (Cnrs Upr 9023, 1996)
Several values for one entry are separate records, joined by “and”; a condition that tells them apart may be missing. Identical values can stand only once. Counter-ions that a name gives are not always drawn.

Assays:
[1] = target: 5-hydroxytryptamine receptor 4 (Mus musculus, UniProt P97288)
[2] = target: 5-hydroxytryptamine receptor 4 (Homo sapiens, UniProt Q13639)
Sequence of 5-hydroxytryptamine receptor 4 (Homo sapiens, UniProt Q13639) (Q13639 whole entry): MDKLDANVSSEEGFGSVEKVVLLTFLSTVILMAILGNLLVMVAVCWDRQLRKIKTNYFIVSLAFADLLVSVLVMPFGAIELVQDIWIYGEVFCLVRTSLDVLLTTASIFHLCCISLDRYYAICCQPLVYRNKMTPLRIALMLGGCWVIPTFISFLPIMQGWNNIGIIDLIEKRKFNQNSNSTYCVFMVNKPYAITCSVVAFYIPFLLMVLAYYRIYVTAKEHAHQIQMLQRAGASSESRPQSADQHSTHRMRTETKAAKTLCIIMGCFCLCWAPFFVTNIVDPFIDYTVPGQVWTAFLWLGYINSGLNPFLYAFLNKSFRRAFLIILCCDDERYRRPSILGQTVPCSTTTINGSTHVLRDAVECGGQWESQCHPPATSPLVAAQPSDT

Sequence of 5-hydroxytryptamine receptor 4 (Mus musculus, UniProt P97288) (P97288 whole entry): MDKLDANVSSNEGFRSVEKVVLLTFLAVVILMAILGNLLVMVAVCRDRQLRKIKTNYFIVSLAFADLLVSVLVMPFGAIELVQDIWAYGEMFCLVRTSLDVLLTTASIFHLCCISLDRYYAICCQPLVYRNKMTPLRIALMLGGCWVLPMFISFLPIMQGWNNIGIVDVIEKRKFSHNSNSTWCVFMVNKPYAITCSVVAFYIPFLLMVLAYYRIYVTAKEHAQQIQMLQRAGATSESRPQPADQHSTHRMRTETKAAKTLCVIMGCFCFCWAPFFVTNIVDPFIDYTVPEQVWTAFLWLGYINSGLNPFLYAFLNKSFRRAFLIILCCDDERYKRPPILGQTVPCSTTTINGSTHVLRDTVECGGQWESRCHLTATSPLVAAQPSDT

SMILES	Ki [1]	Ki [2]
COc1cc(N)c(Cl)cc1C(=O)NC1CCN(CCCOc2ccc(F)cc2)CC1OC (stereo not drawn) [4-amino-5-chloro-N-(1-(3-(4-fluorophenoxy)propyl)-3-methoxypiperidin-4-yl)-2-methoxybenzamide]	51.3 nM	
COc1cc(N)c(Cl)cc1C(=O)NC1CN2CCC1CC2 (stereo not drawn) [ZACOPRIDE,R]	1070 nM and 302 nM and 224 nM	
COc1cc(N)c(Cl)cc1C(=O)NC1CCN(CCCC(=O)N2CCC(N(C)C)CC2)CC1OC (stereo not drawn) [4-Amino-5-chloro-N-(1-{4-[4-(dimethylamino)-1-piperidinyl]-4-oxobutyl}-3-methoxy-4-piperidinyl)-2-methoxybenzamide]	1.38 nM	
CCN(CC)CCNC(=O)c1cc(Cl)c(N)cc1OC [4-amino-5-chloro-N-[2-(diethylamino)ethyl]-2-methoxy-benzamide;hydrochloride]	3980 nM	
COc1cc(N)c(Cl)cc1C(=O)NC1CCN(Cc2ccccc2)CC1 [4-Amino-N-(1-benzyl-piperidin-4-yl)-5-chloro-2-methoxy-benzamide(Clebopride)]	53.7 nM	
CC(C)n1c(=O)n(C(=O)NC2C[C@H]3CC[C@@H](C2)N3C)c2ccccc21 (stereo partly drawn) [BIMU 8]	25.1 nM	79.4 nM
NCCc1c[nH]c2ccc(O)cc12 [[3H]-5-HT]	79.4 nM	
COc1ccc2[nH]cc(CCN)c2c1 [tryptamine, 5-Methoxy]	525 nM	501 nM
COc1ccc2[nH]c(=O)n(C(=O)OC3CC4CCC(C3)N4C)c2c1 (stereo not drawn) [DAU 6285]	26.9 nM	63.1 nM
CN1C2CCC1CC(NC(=O)n1c(=O)[nH]c3ccccc31)C2 (stereo not drawn) [DAU 6215]	224 nM	
CCn1c(=O)n(C(=O)NC2CC3CCC(C2)N3C)c2ccccc21 (stereo not drawn) [BIMU 1]	53.7 nM	
CCN(CC)CCOC(=O)c1cc(Cl)c(N)cc1OC [SDZ-205557]	6.3 nM	6.3 nM
COc1[nH]c2ccc(F)cc2c1C(=O)OCC1CCN(CCNS(C)(=O)=O)CC1 [GR-125487]	0.03 nM	
CN1C2CCC1CC(OC(=O)c1c[nH]c3ccccc13)C2 (stereo not drawn)	158 nM	200 nM
COc1ccc2[nH]cc(C3=CCCNC3)c2c1	603 nM	
COc1cc(N)c(Cl)cc1C(=O)NC1CCN2CCCC1C2 (stereo not drawn) [NSC_3035240]	97.7 nM	
CCCC[N+]12CCC(C1)C(NC(=O)c1cc(Cl)c(N)cc1OC)CC2 (stereo not drawn) [SB205149]	37.1 nM	
Cn1cc(C(=O)OCC2CCN(CCNS(C)(=O)=O)CC2)c2ccccc21 [GR 113808]	0.31 nM	
